# Reference: patent EP0547231B1, “PHOSPHOLIPASE A2 INHIBITOR” (SHIONOGI & CO., LTD., priority 1991, dated 1993)
# Where a name gives a salt, the structure may show the parent alone.
# Biological target: T1, PLA2 (phospholipase A2) (Rattus norvegicus, UniProt P14423)
# T1 construct: from tissue; host or cells: rat platelets
# T1 sequence (P14423 22-146): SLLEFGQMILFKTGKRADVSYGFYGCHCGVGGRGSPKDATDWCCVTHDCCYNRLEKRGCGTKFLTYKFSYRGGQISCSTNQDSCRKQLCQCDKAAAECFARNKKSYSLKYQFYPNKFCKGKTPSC
# Experiment: Phospholipase A2 inhibitory activity (release of free fatty acid from 14C-labelled phosphatidylethanolamine)
# Type: biochemical
# Conditions: PLA2 from rat platelets; CaCl2 (3 mM) in Tris-buffer (0.1 M, pH 7.4); 37 °C for 20 minutes
# Procedure: The compounds of the present invention were tested for their Phospholipase A2 inhibitory activity by the following procedure.
# 1-Palmitoyl-2-[1-^14C]-linoleoyl L-3-Phosphatidylethanolamine (Amersham, Inc., 59 mCi/mmol) were diluted with L-α-phosphatidylethanolamine (Sigma, Co., from […]) [2,000 dpm/nmol], and the dilution was sonicated. The resultant dilution was used as a substrate. The PLA2 (phospholipase A2) which was used in the test was from rat platelets. The PLA2 and the substrate preparation were added to a solution of CaCl2 (3 mM) in Tris-buffer (0.1 M, pH 7.4), and the mixture was allowed to react at 37 °C for 20 minutes. Then, the reaction was terminated by adding 1.25 ml of Dole's reagent to the reaction mixture and stirring immediately the resultant mixture. To the mixture was added 0.5 ml of distilled water and 0.8 ml of n-heptane, and the mixture was stirred, centrifuged, and the supernatant was taken into another tube. To this supernatant were added an additional 0.8 ml of n-heptane and silica gel, and the mixture was stirred, centrifuged, and the supernatant was taken into vials. Toluene cocktail was added to the vials. The amount of free fatty acid released by PLA2 was determined using a liquid scintillation counter.
# Inhibitory activity (%) was estimated by the formula: [(DPM value at the addition of the inhibitor - DPM value without PLA2) / (DPM value with only PLA2 - DPM value without PLA2)] × 100.
row,IC50 [µM],SMILES
1,3,COc1c(C)c(OC)c(C(=O)O)c(C)c1Cc1c(C)c(C(=O)Oc2c(C)c(C)c(C(=O)Oc3c(C)c(C)c(C(=O)O)c(OC)c3C)c(OC)c2C)c(OC)c(C)c1OC [Compound 48]
2,4.6,COc1c(C)c(OC)c(C(=O)Oc2c(C)c(C)c(C(=O)O)c(OC)c2C)c(C)c1Cc1c(C)c(C(=O)Oc2c(C)c(C)c(C(=O)O)c(OC)c2C)c(OC)c(C)c1OC [Compound 50]
3,0.16,COc1c(C)c(OC(=O)c2c(C)c(C)c(OC(=O)c3cccc(C(=O)Oc4c(C)c(C)c(C(=O)Oc5c(C)c(C)c(C(=O)O)c(OC)c5C)c(OC)c4C)c3)c(C)c2OC)c(C)c(C)c1C(=O)O [Compound 52]
4,1.45,"CCCCOC(=O)c1cc(Sc2ccc(OC)c(C(=O)Oc3c(C)c(C)c(C(=O)O)c(OC)c3C)c2)ccc1OC [Compound 59, n-Butyl 3-[3'-(4''-carboxy-3''-methoxy-2'',5'',6''-trimethylphenoxycarbonyl)-4'-methoxyphenyl]-thio-6-methoxybenzoate]"
5,0.07,"COc1c(C)c(OC)c(C(=O)Oc2cc(C)c(C(=O)Oc3c(C)c(C)c(C(=O)Oc4c(C)c(C)c(C(=O)O)c(OC)c4C)c(OC)c3C)c(O)c2C)c(C)c1Oc1ccc(C[C@H](N)C(=O)O)cc1 [Compound 74, [5-[4'-[4''-(4'''-Carboxy-3'''-methoxy-2''',5''',6'''-trimethylphenoxycarbony)-3''-methoxy-2'',5'',6''-trimethylphenoxycarbony]-3'-hydroxy-2',5'-dimethylphenoxycarbony]-2,4-dimethoxy-3,6-dimethylphenyl] [4''''-(2'''''-amino-2'''''-carboxyethyl)phenyl] ether trifluoroacetate]"
6,0.049,"COc1ccc(Sc2ccc(OC)c(C(=O)Oc3c(C)c(C)c(C(=O)Oc4c(C)c(C)c(C(=O)O)c(OC)c4C)c(OC)c3C)c2)cc1C(=O)Oc1c(C)c(C)c(C(=O)Oc2c(C)c(C)c(C(=O)O)c(OC)c2C)c(OC)c1C [Compound 104a, Bis[3-[4'-[(4''-carboxy-3''-methoxy-2'',5'',6''-trimethyl)phenoxycarbony]-3'-methoxy-2',5',6'-trimethyl]-phenoxycarbony-4-methoxyphenyl] sulfide]"
7,0.05,"COc1ccc(S(=O)(=O)c2ccc(OC)c(C(=O)Oc3c(C)c(C)c(C(=O)Oc4c(C)c(C)c(C(=O)O)c(OC)c4C)c(OC)c3C)c2)cc1C(=O)Oc1c(C)c(C)c(C(=O)Oc2c(C)c(C)c(C(=O)O)c(OC)c2C)c(OC)c1C [Compound 104b, Bis[3-[4'-[(4''-carboxy-3''-methoxy-2'',5'',6''-trimethyl)phenoxycarbony]-3'-methoxy-2',5',6'-trimethyl]-phenoxycarbony-4-methoxyphenyl] sulfone]"
8,0.12,"COc1ccc([S+]([O-])c2ccc(OC)c(C(=O)Oc3c(C)c(C)c(C(=O)Oc4c(C)c(C)c(C(=O)O)c(OC)c4C)c(OC)c3C)c2)cc1C(=O)Oc1c(C)c(C)c(C(=O)Oc2c(C)c(C)c(C(=O)O)c(OC)c2C)c(OC)c1C [Compound 104c, Bis[3-[4'-[(4''-carboxy-3''-methoxy-2'',5'',6''-trimethyl)phenoxycarbony]-3'-methoxy-2',5',6'-trimethyl]-phenoxycarbony-4-methoxyphenyl] sulfoxide]"
9,2.1,COc1ccc(Sc2ccc(OC)c(C(=O)Oc3c(C)c(C)c(C(=O)Oc4c(C)c(C)c(C(=O)O)c(OC)c4C)c(OC)c3C)c2)cc1C(=O)O [Compound 108]
10,3.4,"COc1ccc(Oc2ccc(OC)c(C(=O)Oc3c(C)c(C)c(C(=O)O)c(OC)c3C)c2)cc1C(=O)Oc1c(C)c(C)c(C(=O)O)c(OC)c1C [Compound 110a, Bis[3-[4'-carboxy-3'-methoxy-2',5',6'-trimethylphenoxycarbonyl)-4-methoxyphenyl] ether]"
11,2.5,"COc1ccc(Sc2ccc(OC)c(C(=O)Oc3c(C)c(C)c(C(=O)O)c(OC)c3C)c2)cc1C(=O)Oc1c(C)c(C)c(C(=O)O)c(OC)c1C [Compound 110b, Bis[3-(4'-carboxy-3'-methoxy-2',5',6'-trimethylphenoxycarbonyl)-4-methoxyphenyl] sulfide]"
12,0.042,COc1ccc(Oc2ccc(OC)c(C(=O)Oc3c(C)c(C)c(C(=O)Oc4c(C)c(C)c(C(=O)O)c(OC)c4C)c(OC)c3C)c2)cc1C(=O)Oc1c(C)c(C)c(C(=O)Oc2c(C)c(C)c(C(=O)O)c(OC)c2C)c(OC)c1C [Compound 120]

# The next lines start with the compound.
row,SMILES,IC50 [µM]
1,COc1c(C)c(OCc2ccccc2)c(C)c(C)c1C(=O)O [Compound 8],> 330
2,COc1c(C)c(O)c(C)c(C)c1C(=O)O [Compound 9],> 480
3,"COc1c(C)c(OC)c(C(=O)Oc2c(C)c(C)c(C(=O)Oc3c(C)c(C)c(C(=O)O)c(OC)c3C)c(OC)c2C)c(C)c1Cc1c(C)c(C(=O)Oc2c(C)c(C)c(C(=O)Oc3c(C)c(C)c(C(=O)O)c(OC)c3C)c(OC)c2C)c(OC)c(C)c1OC [Compound 44, Bis[5-[4'-(4''-carboxy-3''-methoxy-2'',5'',6''-trimethylphenoxycarbonyl)-3'-methoxy-2',5',6',-trimethylphenoxycarbonyl]-2,4-dimethoxy-3,6-dimethylphenyl] methane]",0.13
4,COc1c(C)c(OC(=O)c2c(C)c(C)c(OC(=O)c3cc(=O)cc(C(=O)Oc4c(C)c(C)c(C(=O)Oc5c(C)c(C)c(C(=O)O)c(OC)c5C)c(OC)c4C)o3)c(C)c2OC)c(C)c(C)c1C(=O)O [Compound 54],0.88
5,COc1cc(OC)c(C(=O)Oc2c(C)c(C)c(C(=O)Oc3c(C)c(C)c(C(=O)O)c(OC)c3C)c(OC)c2C)cc1Oc1cc(C)c(OC)c(C(=O)Oc2c(C)c(C)c(C(=O)Oc3c(C)c(C)c(C(=O)O)c(OC)c3C)c(OC)c2C)c1 [Compound 56],0.035
6,"Cc1c(O)c(Cc2c(C)c(C(=O)Oc3c(C)c(C)c(C(=O)Oc4c(C)c(C)c(C(=O)O)c(O)c4C)c(O)c3C)c(O)c(C)c2O)c(C)c(C(=O)Oc2c(C)c(C)c(C(=O)Oc3c(C)c(C)c(C(=O)O)c(O)c3C)c(O)c2C)c1O [Compound 62, Bis[5-[4'-(4''-carboxy-3''-hydroxy-2'',5'',6''-trimethylphenoxycarbonyl)-3'-hydroxy-2',5',6'-trimethylphenoxycarbonyl]-2,4-dihydroxy-3,6-dimethylphenyl] methane]",0.95
7,"COc1c(C)c(OC)c(C(=O)Oc2c(C)c(O)cc(C)c2C(=O)Oc2c(C)c(C)c(C(=O)Oc3c(C)c(C)c(C(=O)O)c(OC)c3C)c(OC)c2C)c(C)c1Oc1ccc(C[C@H](N)C(=O)O)cc1 [Compound 77, [5-[6'-[4''-(4'''-Carboxy-3'''-methoxy-2''',5''',6'''-trimethylphenoxycarbony)-3''-methoxy-2'',5'',6''-trimethylphenoxycarbony]-3'-hydroxy-2',5'-dimethylphenoxycarbony]-2,4-dimethoxy-3,6-dimethylphenyl] [4''''-(2'''''-amino-2'''''-carboxyethyl)phenyl] ether trifluoroacetate]",0.34
8,"COc1c(C)c(OC(=O)c2c(C)c(C)c(OC(=O)/C=C/C(=O)Oc3c(C)c(C)c(C(=O)Oc4c(C)c(C)c(C(=O)O)c(OC)c4C)c(OC)c3C)c(C)c2OC)c(C)c(C)c1C(=O)O [Compound 121, Trans-1,2-bis[4'-(4''-carboxy-3''-methoxy-2'',5'',6''-trimethylphenoxycarbonyl)-3^'-methoxy-2',5',6'-trimethylphenoxycarbony] ethene]",0.33
9,"COc1c(C)c(OC(=O)c2c(C)c(C)c(OC(=O)CCC(=O)Oc3c(C)c(C)c(C(=O)Oc4c(C)c(C)c(C(=O)O)c(OC)c4C)c(OC)c3C)c(C)c2OC)c(C)c(C)c1C(=O)O [Compound 122, 1,2-Bis[4'-[4''-carboxy-3''-methoxy-2'',5'',6''-trimethylphenoxycarbonyl)-3'-methoxy-2',5',6'-trimethylphenoxycarbony] ethane]",0.04
